# Laboratory results reported in ChEMBL document CHEMBL1201862, “PubChem BioAssay data set” (2004).
#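 Exposure lasted 48 hours, with cells grown in 96-well plates and compounds tested at five concentrations. GI50: concentration for 50% inhibition of growth.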 The source made the active and inactive calls. No stated cut-off is given here; in the data, active = GI50 up to about 1.1 µM and inactive = higher.
# Tests used:
# Experiment in all cases: inhibition of tumour cell growth, NCI panel, 48 h
# [1] = tested on: DLD-1
# [2] = tested on: HOP-18
# [3] = tested on: KM-20L2
# [4] = tested on: M19-MEL
# [5] = tested on: SNB-78
# [6] = tested on: XF498
# [7] = tested on: BT-549
# [8] = tested on: Hs-578T
structure (smiles),measurement,setting,value
CCCCCCCCCCCCC/C=C1\C[C@H](O)COC1=O,GI50,[1],17 µM (inactive)
same,GI50,[2],17.4 µM (inactive)
same,GI50,[3],16.9 µM (inactive)
same,GI50,[4],18.4 µM (inactive)
same,GI50,[5],18.4 µM (inactive)
same,GI50,[6],16.3 µM (inactive)
C=C1C(=O)OC2/C=C(\C)C(=O)CC3OC(C)(C)OC3(C)CC(OC(=O)/C(C)=C/C)C12 (centres undefined),GI50,[7],10.4 µM (inactive)
same,GI50,[8],28.9 µM (inactive)
Cc1nc(-[n+]2nc(-c3ccncc3)nn2-c2ccccc2)sc1C,GI50,[7],17.1 µM (inactive)
same,GI50,[8],44.4 µM (inactive)
CCCc1c(OC)c(=O)c2c(OC)cc(OC)c3c4c(OC)cc(OC)c5c(=O)c(OC)c(CCC)c(c1c23)c54,GI50,[7],15 µM (inactive)
CCOC(=O)c1ccc(NC(NC(=O)CC)(C(F)(F)F)C(F)(F)F)cc1,GI50,[7],> 100 µM (inactive)
same,GI50,[8],> 100 µM (inactive)
N#CC(/C(CCCC(=O)Nc1cccc([N+](=O)[O-])c1)=N\NC(=O)c1c(O)ccc2ccccc12)c1nc2ccccc2s1 (centres undefined),GI50,[1],45.5 µM (inactive)
same,GI50,[2],23.1 µM (inactive)
same,GI50,[3],27 µM (inactive)
same,GI50,[4],16.4 µM (inactive)
same,GI50,[5],37.4 µM (inactive)
same,GI50,[6],21.8 µM (inactive)
O=C1C[C@H]2[C@@H](O1)[C@@H](O)CN1C(=O)c3ccccc3[C@H]21,GI50,[7],> 100 µM (inactive)
N=c1oc2ccccc2cc1C(=O)Nc1nccs1,GI50,[7],39.5 µM (inactive)
same,GI50,[8],46.3 µM (inactive)
CCC1(CC)SCc2nc3ccccc3n21,GI50,[8],31.1 µM (inactive)
CC(=O)N(CN1C(=O)CCC1C(=O)O)c1ccccc1 (centres undefined),GI50,[7],> 100 µM (inactive)
same,GI50,[8],> 53.3 µM (inactive)
O=S(=O)(c1ccccc1)n1c2cc3cccnc3nc2c2cccnc21,GI50,[7],> 100 µM (inactive)
same,GI50,[8],> 100 µM (inactive)
COc1ccc(/C=C/C(=O)C(C)(C)CN2CCCCC2)cc1,GI50,[1],18 µM (inactive)
same,GI50,[2],16.9 µM (inactive)
same,GI50,[3],20.2 µM (inactive)
same,GI50,[4],16.4 µM (inactive)
same,GI50,[5],17.1 µM (inactive)
same,GI50,[6],16.5 µM (inactive)
CCc1cccc(C(C)C)c1NC1=C([n+]2ccc(C)cc2)C(=O)c2ccccc2C1=O.[O-][Cl+3]([O-])([O-])[O-],GI50,[8],12.8 µM (inactive)
COc1cc2oc(=O)cc(C)c2cc1OC,GI50,[8],> 100 µM (inactive)
Oc1ccc(-c2nn3c(CCCCCCCCc4nnc5sc(-c6ccc(O)cc6)nn45)nnc3s2)cc1,GI50,[7],> 100 µM (inactive)
same,GI50,[8],> 100 µM (inactive)
CC1OC(n2ccc3ccc([N+](=O)[O-])cc32)C(O)C(O)C1O (centres undefined),GI50,[1],> 100 µM (inactive)
same,GI50,[3],> 100 µM (inactive)
same,GI50,[4],> 100 µM (inactive)
same,GI50,[5],> 100 µM (inactive)
same,GI50,[6],> 100 µM (inactive)
Cc1cccc(N/C(=C(/C(Cl)=C(Cl)Cl)[N+](=O)[O-])n2nnc3ccccc32)c1,GI50,[7],18.6 µM (inactive)
same,GI50,[8],4.91 µM (inactive)
